What was measured:
Type in all cases: in vivo
Leptochloa chinensis [1] = assay: Greenhouse herbicidal activity and crop safety comparison (Test Example 2)
Procedure, shortened: (§1)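 Fresh weight inhibition, banded into grades A to E (E <20%), was rated 14-21 days after foliar spraying of 3-6 leaf plants, or 14-30 days after a soil spray applied 24 h post-sowing.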

Echinochloa crusgalli [2] = assay: as above
Procedure, shortened: as §1

[3] = tested on: Oryza sativa subsp. japonica; assay: as above
Procedure, shortened: as §1

[4] = tested on: Oryza sativa subsp. indica; assay: as above
Procedure, shortened: as §1

Eclipta prostrata = assay: Greenhouse herbicidal activity assay, post-emergence; settings: Post-emergence test, rate 150 g a.i./hm^2, grade by fresh weight inhibition rate
Procedure, shortened: (§2)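 Graded A (≥80%) to E (<20%) by fresh weight inhibition, read 14-21 days after spraying. Plants were pot-grown in a growth chamber and received foliar application at the 3-6 leaf stage, being air-dried and returned to the chamber afterwards.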

Cyperus iria = assay: as above; settings: Post-emergence test, rate 150 g a.i./hm^2, grade by fresh weight inhibition rate
Procedure, shortened: as §2

Leptochloa chinensis [5] = assay: as above; settings: Post-emergence test, rate 150 g a.i./hm^2, grade by fresh weight inhibition rate
Procedure, shortened: as §2

Echinochloa crusgalli [6] = assay: as above; settings: Post-emergence test, rate 150 g a.i./hm^2, grade by fresh weight inhibition rate
Procedure, shortened: as §2

Digitaria sanguinalis = assay: as above; settings: Post-emergence test, rate 150 g a.i./hm^2, grade by fresh weight inhibition rate
Procedure, shortened: as §2

Row | Compound | Leptochloa chinensis, control efficacy grading (fresh weight inhibition rate) (Leptochloa chinensis [1]; Rate 150 g/ha) | Echinochloa crusgalli, control efficacy grading (fresh weight inhibition rate) (Echinochloa crusgalli [2]; Rate 150 g/ha) | Oryza sativa subsp. japonica, grading of fresh weight inhibition rate (crop safety) ([3]; Rate 150 g/ha) | Oryza sativa subsp. indica, grading of fresh weight inhibition rate (crop safety) ([4]; Rate 150 g/ha) | Control efficacy grade, Eclipta prostrata (Eclipta prostrata) | Control efficacy grade, Cyperus iria (Cyperus iria) | Control efficacy grade, Leptochloa chinensis (Leptochloa chinensis [5]) | Control efficacy grade, Echinochloa crusgalli (Echinochloa crusgalli [6]) | Control efficacy grade, Digitaria sanguinalis (Digitaria sanguinalis) | inhibition at 150 g/ha (Leptochloa chinensis [1]; Dinebra chinensis, Rate 150 g/ha, read-out: Leptochloa chinensis, control efficacy grading (fresh weight inhibition rate)) | inhibition at 150 g/ha (Echinochloa crusgalli [2]; Echinochloa crus-galli, Rate 150 g/ha, read-out: Echinochloa crusgalli, control efficacy grading (fresh weight inhibition rate)) | pest or weed control at 150 g/ha (Eclipta prostrata; Eclipta prostrata, read-out: Control efficacy grade, Eclipta prostrata) | pest or weed control at 150 g/ha (Cyperus iria; Cyperus iria, read-out: Control efficacy grade, Cyperus iria) | pest or weed control at 150 g/ha (Leptochloa chinensis [5]; Dinebra chinensis, read-out: Control efficacy grade, Leptochloa chinensis) | pest or weed control at 150 g/ha (Echinochloa crusgalli [6]; Echinochloa crus-galli, read-out: Control efficacy grade, Echinochloa crusgalli) | pest or weed control at 150 g/ha (Digitaria sanguinalis; Digitaria sanguinalis, read-out: Control efficacy grade, Digitaria sanguinalis) | Leptochloa chinensis, control efficacy grading (fresh weight inhibition rate) (Leptochloa chinensis [1]; Rate 250 g/ha) | Echinochloa crusgalli, control efficacy grading (fresh weight inhibition rate) (Echinochloa crusgalli [2]; Rate 250 g/ha) | Oryza sativa subsp. japonica, grading of fresh weight inhibition rate (crop safety) ([3]; Rate 250 g/ha) | Oryza sativa subsp. indica, grading of fresh weight inhibition rate (crop safety) ([4]; Rate 250 g/ha)
1 | CCc1nnc(NC(=O)c2ccc(S(C)(=O)=O)c(S(=O)(=O)C3CC3)c2Cl)o1 [Compound 3-423] | A (Fresh weight inhibition rate≥80% to 100%) | A (Fresh weight inhibition rate≥80% to 100%) | E (Fresh weight inhibition rate<20%) | E (Fresh weight inhibition rate<20%) | A (Fresh weight inhibition rate≥80% to 100%) | A (Fresh weight inhibition rate≥80% to 100%) | A (Fresh weight inhibition rate≥80% to 100%) | A (Fresh weight inhibition rate≥80% to 100%) | A (Fresh weight inhibition rate≥80% to 100%) | – | – | – | – | – | – | – | – | – | – | –
2 | CCCS(=O)(=O)c1c(S(C)(=O)=O)ccc(C(=O)Nc2nnco2)c1Cl [Compound 3-271, 2-chloro-4-(methylsulfonyl)-N-(1,3,4-oxadiazol-2-yl)-3-(propylsulfonyl)benzamide] | – | – | E (Fresh weight inhibition rate<20%) | E (Fresh weight inhibition rate<20%) | – | – | – | – | – | 80 to 100% | 80 to 100% | 80 to 100% | 80 to 100% | 80 to 100% | 80 to 100% | 80 to 100% | – | – | – | –
3 | CC(C)c1nnc(NC(=O)c2ccc(S(C)(=O)=O)c(S(=O)(=O)C(C)C)c2Cl)o1 [Compound 3-508] | A (Fresh weight inhibition rate≥80% to 100%) | A (Fresh weight inhibition rate≥80% to 100%) | E (Fresh weight inhibition rate<20%) | E (Fresh weight inhibition rate<20%) | A (Fresh weight inhibition rate≥80% to 100%) | A (Fresh weight inhibition rate≥80% to 100%) | A (Fresh weight inhibition rate≥80% to 100%) | A (Fresh weight inhibition rate≥80% to 100%) | A (Fresh weight inhibition rate≥80% to 100%) | – | – | – | – | – | – | – | – | – | – | –
4 | CCC(C)S(=O)(=O)c1c(S(C)(=O)=O)ccc(C(=O)Nc2nnco2)c1Cl (racemic) [Compound 3-290] | A (Fresh weight inhibition rate≥80% to 100%) | A (Fresh weight inhibition rate≥80% to 100%) | E (Fresh weight inhibition rate<20%) | E (Fresh weight inhibition rate<20%) | A (Fresh weight inhibition rate≥80% to 100%) | A (Fresh weight inhibition rate≥80% to 100%) | A (Fresh weight inhibition rate≥80% to 100%) | A (Fresh weight inhibition rate≥80% to 100%) | A (Fresh weight inhibition rate≥80% to 100%) | – | – | – | – | – | – | – | – | – | – | –
5 | CCCS(=O)(=O)c1c(S(C)(=O)=O)ccc(C(=O)Nc2nnc(C3CC3)o2)c1Cl [Compound 3-619] | A (Fresh weight inhibition rate≥80% to 100%) | A (Fresh weight inhibition rate≥80% to 100%) | E (Fresh weight inhibition rate<20%) | E (Fresh weight inhibition rate<20%) | A (Fresh weight inhibition rate≥80% to 100%) | A (Fresh weight inhibition rate≥80% to 100%) | A (Fresh weight inhibition rate≥80% to 100%) | A (Fresh weight inhibition rate≥80% to 100%) | A (Fresh weight inhibition rate≥80% to 100%) | – | – | – | – | – | – | – | – | – | – | –
6 | Cc1nnc(NC(=O)c2ccc(S(C)(=O)=O)c(S(=O)(=O)CC(C)C)c2Cl)o1 [Compound 3-31] | – | – | – | – | A (Fresh weight inhibition rate≥80% to 100%) | A (Fresh weight inhibition rate≥80% to 100%) | A (Fresh weight inhibition rate≥80% to 100%) | B (Fresh weight inhibition rate≥260% to <80%) | A (Fresh weight inhibition rate≥80% to 100%) | – | – | – | – | – | – | – | A (Fresh weight inhibition rate≥80% to 100%) | A (Fresh weight inhibition rate≥80% to 100%) | E (Fresh weight inhibition rate<20%) | E (Fresh weight inhibition rate<20%)
7 | CS(=O)(=O)c1ccc(C(=O)Nc2nnco2)c(Cl)c1S(=O)(=O)C1CCC1 [Compound 3-312] | A (Fresh weight inhibition rate≥80% to 100%) | A (Fresh weight inhibition rate≥80% to 100%) | E (Fresh weight inhibition rate<20%) | E (Fresh weight inhibition rate<20%) | A (Fresh weight inhibition rate≥80% to 100%) | A (Fresh weight inhibition rate≥80% to 100%) | A (Fresh weight inhibition rate≥80% to 100%) | A (Fresh weight inhibition rate≥80% to 100%) | A (Fresh weight inhibition rate≥80% to 100%) | – | – | – | – | – | – | – | – | – | – | –
8 | CCC(C)S(=O)(=O)c1c(S(C)(=O)=O)ccc(C(=O)Nc2nnc(C(C)C)o2)c1Cl (racemic) [Compound 3-522] | A (Fresh weight inhibition rate≥80% to 100%) | A (Fresh weight inhibition rate≥80% to 100%) | E (Fresh weight inhibition rate<20%) | E (Fresh weight inhibition rate<20%) | A (Fresh weight inhibition rate≥80% to 100%) | A (Fresh weight inhibition rate≥80% to 100%) | A (Fresh weight inhibition rate≥80% to 100%) | A (Fresh weight inhibition rate≥80% to 100%) | C (Fresh weight inhibition rate≥40% to <60%) | – | – | – | – | – | – | – | – | – | – | –
9 | CCc1nnc(NC(=O)c2ccc(S(C)(=O)=O)c(S(=O)(=O)CC3CC3)c2Cl)o1 [Compound 3-418] | A (Fresh weight inhibition rate≥80% to 100%) | A (Fresh weight inhibition rate≥80% to 100%) | E (Fresh weight inhibition rate<20%) | E (Fresh weight inhibition rate<20%) | A (Fresh weight inhibition rate≥80% to 100%) | A (Fresh weight inhibition rate≥80% to 100%) | A (Fresh weight inhibition rate≥80% to 100%) | A (Fresh weight inhibition rate≥80% to 100%) | A (Fresh weight inhibition rate≥80% to 100%) | – | – | – | – | – | – | – | – | – | – | –
10 | CCc1nnc(NC(=O)c2ccc(S(C)(=O)=O)c(S(=O)(=O)C(C)CC)c2Cl)o1 (racemic) [Compound 3-406] | A (Fresh weight inhibition rate≥80% to 100%) | A (Fresh weight inhibition rate≥80% to 100%) | E (Fresh weight inhibition rate<20%) | E (Fresh weight inhibition rate<20%) | A (Fresh weight inhibition rate≥80% to 100%) | A (Fresh weight inhibition rate≥80% to 100%) | A (Fresh weight inhibition rate≥80% to 100%) | A (Fresh weight inhibition rate≥80% to 100%) | A (Fresh weight inhibition rate≥80% to 100%) | – | – | – | – | – | – | – | – | – | – | –

Reference: patent US20250223268A1, “4-Methylsulfonylbenzamide Compound, Preparation Method, Herbicidal Composition And Use” (Jiangsu Flag Chemical Industry Co., Ltd., priority 2022, published 2025)
